Test system: NOMO1
Assay: cell viability relative to DMSO control; higher = less cytotoxic
Details: 48 h
Procedure, shortened: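 Leukemia cells (NOMO1 or SEM, 500 cells/well; P12-Ichikawa, 1000 cells/well) were seeded in 5 μl in 1536-well plates after at least four passages of adaptation to each medium. They received library compounds in DMSO by pin dosing, 11 threefold points from 47 μM to 0.79 nM. Luminescence with CellTiter-Glo One was read after 48 h at 37°C. Viability is stated per plate relative to DMSO wells, with cell-free wells as background.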

[1] = HPLM + 10% dialyzed FBS, 0.000781 µM
[2] = HPLM + 10% dialyzed FBS, 0.00234 µM
[3] = HPLM + 10% dialyzed FBS, 0.00702 µM
[4] = HPLM + 10% dialyzed FBS, 0.0211 µM
[5] = HPLM + 10% dialyzed FBS, 0.0632 µM
[6] = HPLM + 10% dialyzed FBS, 0.19 µM
[7] = HPLM + 10% dialyzed FBS, 0.569 µM
[8] = HPLM + 10% dialyzed FBS, 1.71 µM
[9] = HPLM + 10% dialyzed FBS, 5.12 µM
[10] = HPLM + 10% dialyzed FBS, 15.4 µM
[11] = HPLM + 10% dialyzed FBS, 46.1 µM
[12] = RPMI 5 mM glucose + 10% FBS, 0.000781 µM
[13] = RPMI 5 mM glucose + 10% FBS, 0.00234 µM
[14] = RPMI 5 mM glucose + 10% FBS, 0.00702 µM
[15] = RPMI 5 mM glucose + 10% FBS, 0.0211 µM
[16] = RPMI 5 mM glucose + 10% FBS, 0.0632 µM
[17] = RPMI 5 mM glucose + 10% FBS, 0.19 µM
[18] = RPMI 5 mM glucose + 10% FBS, 0.569 µM
[19] = RPMI 5 mM glucose + 10% FBS, 1.71 µM
[20] = RPMI 5 mM glucose + 10% FBS, 5.12 µM
[21] = RPMI 5 mM glucose + 10% FBS, 15.4 µM
[22] = RPMI 5 mM glucose + 10% FBS, 46.1 µM
[23] = RPMI 5 mM glucose + 10% dialyzed FBS, 0.000781 µM
[24] = RPMI 5 mM glucose + 10% dialyzed FBS, 0.00234 µM
[25] = RPMI 5 mM glucose + 10% dialyzed FBS, 0.00702 µM
[26] = RPMI 5 mM glucose + 10% dialyzed FBS, 0.0211 µM
[27] = RPMI 5 mM glucose + 10% dialyzed FBS, 0.0632 µM
[28] = RPMI 5 mM glucose + 10% dialyzed FBS, 0.19 µM
[29] = RPMI 5 mM glucose + 10% dialyzed FBS, 0.569 µM
[30] = RPMI 5 mM glucose + 10% dialyzed FBS, 1.71 µM
[31] = RPMI 5 mM glucose + 10% dialyzed FBS, 5.12 µM
[32] = RPMI 5 mM glucose + 10% dialyzed FBS, 15.4 µM
[33] = RPMI 5 mM glucose + 10% dialyzed FBS, 46.1 µM

Row | Compound | cell viability [1] [%] | cell viability [2] [%] | cell viability [3] [%] | cell viability [4] [%] | cell viability [5] [%] | cell viability [6] [%] | cell viability [7] [%] | cell viability [8] [%] | cell viability [9] [%] | cell viability [10] [%] | cell viability [11] [%] | cell viability [12] [%] | cell viability [13] [%] | cell viability [14] [%] | cell viability [15] [%] | cell viability [16] [%] | cell viability [17] [%] | cell viability [18] [%] | cell viability [19] [%] | cell viability [20] [%] | cell viability [21] [%] | cell viability [22] [%] | cell viability [23] [%] | cell viability [24] [%] | cell viability [25] [%] | cell viability [26] [%] | cell viability [27] [%] | cell viability [28] [%] | cell viability [29] [%] | cell viability [30] [%] | cell viability [31] [%] | cell viability [32] [%] | cell viability [33] [%]
1 | COc1cc2nc(N(C)CCCNC(=O)C3CCCO3)nc(N)c2cc1OC (stereo unspecified) | 63.4 | 82.7 | 99.4 | 77.8 | 96.3 | 90.6 | 79.7 | 89.7 | 31.3 | 28 | 20 | 70.7 | 74 | 71.9 | 75.4 | 73.2 | 81.8 | 72.1 | 71.9 | 33.2 | 36 | 10 | 61.6 | 76.5 | 68.8 | 85 | 77.6 | 77.9 | 75.4 | 87.4 | 51.9 | 61.9 | 15.1
2 | CC(C)n1nc(-c2cc3cc(O)ccc3[nH]2)c2c(N)ncnc21 | 79 | 124 | 110 | 107 | 99.7 | 94.7 | 65.7 | 61.6 | 44.7 | 31.2 | 27 | 96.2 | 113 | 104 | 105 | 104 | 96.6 | 88.1 | 90.2 | 71.8 | 44.1 | 23 | 111 | 110 | 100 | 101 | 101 | 90.9 | 76.7 | 78 | 54.2 | 34.1 | 14.1
3 | N=C(CCSCc1csc(N=C(N)N)n1)N[S+](N)(=O)[O-] | 87 | 95.6 | 110 | 101 | 99.1 | 83.2 | 101 | 115 | 101 | 91.8 | 107 | 80.2 | 94.7 | 94.8 | 92 | 92.2 | 97.5 | 93.8 | 88.1 | 99.1 | 86.8 | 88.3 | 84.7 | 96 | 89.9 | 92.1 | 100 | 106 | 95.7 | 93.7 | 100 | 97 | 103
4 | Cc1nc(NC(=O)N2CCC[C@H]2C(N)=O)sc1-c1ccnc(C(C)(C)C(F)(F)F)c1 | 99.5 | 96.2 | 105 | 81.2 | 85.9 | 81.5 | 75.9 | 70.1 | 46.2 | 44.4 | 71.7 | 86.8 | 84.8 | 88 | 82.7 | 87.5 | 80.2 | 79.4 | 77.8 | 56.3 | 55.3 | 82.5 | 79.6 | 84.8 | 82.2 | 76.8 | 82.2 | 75.6 | 67.8 | 69.2 | 48.3 | 48.2 | 87.7
5 | Cl.Cl.Cl.O[C@@H](COc1cccc2ncccc12)CN1CCN([C@@H]2c3ccccc3[C@@H]3[C@H](c4ccccc42)C3(F)F)CC1 | 79.7 | 84.8 | 75.8 | 89.4 | 94.7 | 102 | 93.8 | 76.5 | 94.6 | 70.8 | 68.6 | 79.7 | 78.4 | 75.8 | 91.7 | 97 | 84.5 | 89.8 | 87.9 | 81 | 76.2 | 74.2 | 98.6 | 83.8 | 87.2 | 79.5 | 81 | 92.4 | 73.5 | 84.2 | 86.2 | 78.2 | 87
6 | O=C(NOCC(O)CO)c1cc(Br)c(F)c(F)c1Nc1ccc(I)cc1F (stereo unspecified) | 65.8 | 77.1 | 72.1 | 79.8 | 59.2 | 50.5 | 30.1 | 32.6 | 29 | 33.9 | 20 | 69.1 | 90.6 | 67.6 | 73.3 | 66.5 | 50.5 | 28.1 | 33.7 | 27.5 | 28.8 | 27.8 | 81.3 | 84.3 | 59.2 | 58.1 | 49.8 | 40.9 | 27.5 | 30.3 | 26.7 | 31.2 | 24.6
7 | C=C(C)[C@@H]1CC[C@]2(C(=O)O)CC[C@]3(C)[C@H](CC[C@@H]4[C@@]5(C)CC[C@H](O)C(C)(C)[C@@H]5CC[C@]43C)[C@@H]12 | 115 | 124 | 107 | 123 | 119 | 110 | 118 | 105 | 102 | 94.6 | 95.7 | 116 | 118 | 121 | 111 | 115 | 111 | 119 | 113 | 111 | 114 | 97.1 | – | – | – | – | – | – | – | – | – | – | –
8 | COC1=CC=CC=C1C2=CC=CC(=C2)C/3=C(O)/C4=CC(=C(Cl)C=C4NC3=O)C#N | 110 | 120 | 109 | 109 | 129 | 114 | 107 | 103 | 31.2 | 5.52 | 1.77 | 89.6 | 111 | 113 | 98.5 | 107 | 108 | 113 | 110 | 82.4 | 13.4 | 2.44 | 92.2 | 103 | 95.4 | 93.6 | 96.4 | 88.3 | 104 | 108 | 84.5 | 21 | 4.29
9 | CN[S+](=O)([O-])Cc1ccc2[nH]cc(CCN(C)C)c2c1 | 116 | 124 | 118 | 124 | 130 | 130 | 148 | 136 | 128 | 135 | 122 | 106 | 124 | 110 | 118 | 110 | 120 | 117 | 109 | 129 | 139 | 111 | 113 | 118 | 114 | 122 | 118 | 123 | 122 | 120 | 118 | 129 | 129
10 | CN(C)c1ccc(O)c2c1C[C@H]1C[C@H]3[C@H](N(C)C)C(O)=C(C(N)=O)C(=O)[C@@]3(O)C(O)=C1C2=O | 103 | 105 | 105 | 118 | 117 | 125 | 99.8 | 111 | 101 | 100 | 113 | 103 | 98 | 109 | 98.1 | 114 | 122 | 107 | 109 | 101 | 98.5 | 107 | 96 | 93.6 | 101 | 88.7 | 95.3 | 96 | 92.8 | 102 | 97.3 | 98.9 | 113
11 | COc1ccc(C[C@@H](C)[C@@H](C)Cc2ccc(OC)c(OC)c2)cc1OC | 92.1 | 94.8 | 107 | 112 | 93.5 | 75.5 | 68 | 53.7 | 16.6 | 17.8 | 13.8 | 87.3 | 93.7 | 88.6 | 100 | 86.3 | 85.1 | 74.9 | 71.6 | 8.17 | 6.56 | 5.76 | 84 | 80.2 | 97.4 | 97.6 | 95.3 | 89.6 | 82.4 | 69.2 | 21.4 | 11.1 | 7.7
12 | C#Cc1cccc(Nc2ncnc3cc(OCCOC)c(OCCOC)cc23)c1 | 94.2 | 104 | 101 | 83.7 | 108 | 86 | 90.9 | 110 | 79.3 | 75.3 | 45.7 | 85.4 | 96.9 | 102 | 102 | 93.2 | 91.8 | 95 | 93.7 | 89.7 | 85.1 | 70.7 | 92.2 | 85.5 | 88.9 | 83.4 | 86.6 | 83.8 | 85.4 | 89 | 77.6 | 84 | 50.2
13 | CC(=O)O.Cc1c(-c2ccc(O)cc2)n(Cc2ccc(OCCN3CCCCCC3)cc2)c2ccc(O)cc12 | 95.5 | 106 | 92.7 | 95.6 | 89.6 | 102 | 111 | 103 | 106 | 94.1 | 92.5 | 86.3 | 103 | 92.3 | 92.7 | 88.5 | 105 | 92.3 | 87.5 | 96.5 | 93.9 | 88.6 | 97.5 | 97.9 | 91.4 | 96 | 99.2 | 107 | 103 | 98.1 | 102 | 101 | 86.7
14 | CC\1=C/C=C\C=[N]1[Pt](N)(Cl)Cl | 118 | 105 | 111 | 110 | 108 | 130 | 131 | 98.8 | 106 | 129 | 108 | 96.4 | 95.6 | 93.4 | 103 | 99.6 | 113 | 106 | 88.7 | 106 | 110 | 93.3 | 107 | 90.8 | 96.6 | 95.3 | 96.4 | 111 | 97.3 | 104 | 107 | 109 | 96.3
15 | C[C@]\12CC[C@H](O)CC1=C/CC3C2CC[C@@]\4(C)C3C\C=C4[N]5C=NC6=C5C=CC=C6 (stereo partly specified) | 95.5 | 110 | 99.5 | 96.7 | 105 | 115 | 117 | 102 | 97 | 116 | 110 | 96.4 | 99 | 100 | 103 | 112 | 109 | 117 | 101 | 99.2 | 125 | 100 | 84.8 | 101 | 97.3 | 124 | 110 | 122 | 117 | 113 | 104 | 105 | 112
16 | O=C(NCC[S+](=O)([O-])c1ccc(C(F)(F)F)cn1)c1ccc(Cl)cc1 | 127 | 117 | 119 | 117 | 119 | 120 | 132 | 117 | 105 | 122 | 106 | 122 | 144 | 116 | 134 | 135 | 127 | 123 | 118 | 130 | 128 | 110 | – | – | – | – | – | – | – | – | – | – | –
